# Experiments:
# [1] = target: T1, pancreatic β-cell KATP channels (Rattus norvegicus, UniProt P70673+Q09429); experiment: Inside-out patch single channel recording in rat pancreatic β-cells, ATP free solution; assay type: cell-based; conditions: bath-applied
# T1 construct: Single Channel Currents of KATP Channels in Rat Pancreatic β-Cells; from tissue; host or cells: rat pancreatic β-cells
# rat pancreatic islets = experiment: Insulin release from rat pancreatic islets; assay type: cell-based; conditions: 100 μM; 5.5 mM glucose external; from 22.5±1.2
# Protocol: With 5.5 mM glucose in the external solution, basal insulin secretion was measured. […] Bath application of 100 μM THB increased insulin secretion from 22.5±1.2 to 39.4±1.5 pg/islet/min (FIG. 5; P<0.01; 6 cells) and 100 μM Ipt increased insulin secretion from 22.5±1.2 to 34.5±1.8 pg/islet/min (FIG. 11; P<0.05; 7 cells).
# Kir6.2SUR1 KATP channels = target: T2, Kir6.2SUR1 KATP channels (Homo sapiens, UniProt Q09428+Q14654); experiment: Patch-clamp cell attached single-channel recording of transfected Kir6.2SUR1 channels in HEK-293 cells; assay type: cell-based
# T2 construct: expressed in transfected cells; host or cells: HEK-293
# Protocol: In β-cells, the dominant subtype of KATP is the Kir 6.2SUR1 subtype, as earlier described. Cells transiently transfected with the KATP Kir 6.2SUR1 channel subtype were evaluated for membrane potential and action potential firing using cell-attached recording in the presence or absence of 100 μm THB (FIG. 8A).
# To further determine the effects of THB and Ipt on pancreatic β-cell-type KATP channels, the inventor examined the effects of THB or Ipt on the transfected Kir6.2SUR1 KATP channels in HEK-293 cells.
# [2] = target: T1, pancreatic β-cell KATP channels; experiment: Whole-cell KATP currents induced by ramp pulses in rat pancreatic β-cells; assay type: cell-based; conditions: 100 μM bath application; external glucose 5.5 mM; ramp −90 to −50 mV
# Protocol: To determine whether or not THB and Ipt can block pancreatic β-cell KATP channels, whole-cell currents induced by repetitive ramp pulses from −90 to −50 mV (at 0.2 Hz) were recorded in voltage-clamp mode (external glucose=5.5 mM).
# [3] = test system: D2 receptor and dopamine-opened K+ channels; experiment: Dopamine-induced membrane potential hyperpolarization in dissociated SNc DA neurons; assay type: cell-based, rat
# Protocol: All experiments were performed at room temperature (22±1° C.).
# [4] = target: T3, KATP channels in SNc DA neurons (Rattus norvegicus, UniProt P70673+Q09429); experiment: Perforated patch current-clamp recording of rotenone-opened KATP channels in dissociated SNc DA neurons; assay type: cell-based; conditions: for altered membrane potential in the presence of rotenone: FIG. 5C
# T3 construct: functional KATP channels natively expressed on midbrain dopamine neurons; from tissue; host or cells: acutely dissociated dopaminergic neurons of rat substantia nigra pars compacta
# Protocol: The protocol for preparation of single neurons from the rat SNc was approved by the Institutional Animal Care and Use Committee of the Barrow Neurological Institute. Single DA neurons were acutely dissociated from the SNc of 2-3-week-old Wistar rats following the protocol as previously described. Briefly, rats were anesthetized with isoflurane, and brain tissue was rapidly removed and immersed in cold (2-4° C.) dissection solution which contained: 136.7 mM NaCl, 5 mM KCl, 0.1 mM Na2HPO4, 0.2 mM KH2PO4, 9.84 mM HEPES, 16.6 mM D-glucose, 21.9 mM sucrose, pH 7.3, 330 mOsm, oxygenated with 100% O2 [8]. Three 400-μm coronal slices containing the SNc were cut using a vibrotome (Vibroslice 725M, WPI, Sarasota, Fla.). After cutting, slices were continuously bubbled with 95% O2-5% CO2 at room temperature (22±1° C.) for at least one hour in artificial cerebrospinal fluid (ACSF), which contained: 124 mM NaCl, 5 mM KCl, 24 mM NaHCO3, 1.3 mM MgSO4, 1.2 mM KH2PO4, 2.4 mM CaCl2, and 10 mM glucose, pH 7.4. Thereafter, slices were treated with pronase (1 mg per 6 ml) at 31° C. for 30 minutes in ACSF. The SNc was identified in a coronal slice using a stereo microscope with reference to the rat brain atlas, and was micro-punched out from slices using a well-polished needle. One punched piece was then transferred to a 35-mm culture dish filled with well-oxygenated standard extracellular solution, which contained: 150 mM NaCl, 5 mM KCl, 1 mM MgCl2, 2 mM CaCl2, 10 mM glucose 10, and 10 mM HEPES, pH 7.4 (with Tris-base). The punched piece was then dissociated mechanically using a fire-polished micro-Pasteur pipette under an inverted microscope (Olympus IX-70, Lake Success, N.Y.). The separated cells adhered to the bottom of the culture dish within 30 minutes. In the present study, we used only DA neurons that maintained their original morphological features of polygonal, large or medium somata with 2-4 thick primary dendritic processes were used.
# Perforated patch whole-cell recording techniques were employed as previously described. Pipettes (3-5 MΩ) used for perforated patch recording were filled with intracellular recording solution containing 140 mM potassium gluconate, 10 mM KCl, 5 mM MgCl2, and 10 mM HEPES, pH 7.2 (with Tris-OH). The amphotericin B was freshly prepared to 200-240 μg/ml from a 40 mg/ml in DMSO stock. The liquid junction potential was 14 mV calculated using Clamplex 9.2 (Axon Instruments, Foster City, Calif.) and corrections were made for junction potentials post-hoc. After tight seal (>2 GΩ) formation, it usually took about 5-20 min to convert to perforated patch mode, and an access resistance of 20-60 MΩ was accepted to start the experiments. Series resistance was not compensated in this study. The data were filtered at 2 kHz, acquired at 10 kHz and digitized on-line (Digidata 1322 series A/D board, Axon Instruments, Foster City, Calif.). […] Drug application was performed using a computer-controlled “U-tube” system as previously described. All experiments were performed at room temperature (22±1° C.). To enable identification of single, dissociated SNc neurons after a patch-clamp recording session, the recording pipette was filled with a fluorescent dye (lucifer yellow CH, Sigma Chemical Co., St. Louis, Mo., 1.0 mg/ml in the recording electrode) in some experiments. After conversion from the perforated patch to the conventional whole-cell recording mode, the dye was ejected into the cytoplasm by a pulse (200 ms, 0.5 Hz) of hyperpolarizing current (1.0 nA) for 3 min. Labeled cells were visualized using epifluorescence microscopy.
# Under physiological conditions, the KATP channels are mostly closed. However, in the acutely-dissociated single neurons from rat SNc, there is background opening of KATP channels. […]
# T3 sequence (P70673 whole entry): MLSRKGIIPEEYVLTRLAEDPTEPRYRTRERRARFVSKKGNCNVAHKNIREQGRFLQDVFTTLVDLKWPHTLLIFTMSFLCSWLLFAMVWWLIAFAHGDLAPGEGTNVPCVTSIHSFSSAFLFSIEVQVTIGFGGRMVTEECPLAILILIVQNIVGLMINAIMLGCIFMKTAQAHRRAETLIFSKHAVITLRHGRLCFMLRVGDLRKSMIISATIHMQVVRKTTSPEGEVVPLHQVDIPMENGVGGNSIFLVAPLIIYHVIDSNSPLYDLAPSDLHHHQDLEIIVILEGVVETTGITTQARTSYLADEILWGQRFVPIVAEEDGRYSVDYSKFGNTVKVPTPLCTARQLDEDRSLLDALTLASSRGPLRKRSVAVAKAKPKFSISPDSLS
# T3 sequence (Q09429 whole entry): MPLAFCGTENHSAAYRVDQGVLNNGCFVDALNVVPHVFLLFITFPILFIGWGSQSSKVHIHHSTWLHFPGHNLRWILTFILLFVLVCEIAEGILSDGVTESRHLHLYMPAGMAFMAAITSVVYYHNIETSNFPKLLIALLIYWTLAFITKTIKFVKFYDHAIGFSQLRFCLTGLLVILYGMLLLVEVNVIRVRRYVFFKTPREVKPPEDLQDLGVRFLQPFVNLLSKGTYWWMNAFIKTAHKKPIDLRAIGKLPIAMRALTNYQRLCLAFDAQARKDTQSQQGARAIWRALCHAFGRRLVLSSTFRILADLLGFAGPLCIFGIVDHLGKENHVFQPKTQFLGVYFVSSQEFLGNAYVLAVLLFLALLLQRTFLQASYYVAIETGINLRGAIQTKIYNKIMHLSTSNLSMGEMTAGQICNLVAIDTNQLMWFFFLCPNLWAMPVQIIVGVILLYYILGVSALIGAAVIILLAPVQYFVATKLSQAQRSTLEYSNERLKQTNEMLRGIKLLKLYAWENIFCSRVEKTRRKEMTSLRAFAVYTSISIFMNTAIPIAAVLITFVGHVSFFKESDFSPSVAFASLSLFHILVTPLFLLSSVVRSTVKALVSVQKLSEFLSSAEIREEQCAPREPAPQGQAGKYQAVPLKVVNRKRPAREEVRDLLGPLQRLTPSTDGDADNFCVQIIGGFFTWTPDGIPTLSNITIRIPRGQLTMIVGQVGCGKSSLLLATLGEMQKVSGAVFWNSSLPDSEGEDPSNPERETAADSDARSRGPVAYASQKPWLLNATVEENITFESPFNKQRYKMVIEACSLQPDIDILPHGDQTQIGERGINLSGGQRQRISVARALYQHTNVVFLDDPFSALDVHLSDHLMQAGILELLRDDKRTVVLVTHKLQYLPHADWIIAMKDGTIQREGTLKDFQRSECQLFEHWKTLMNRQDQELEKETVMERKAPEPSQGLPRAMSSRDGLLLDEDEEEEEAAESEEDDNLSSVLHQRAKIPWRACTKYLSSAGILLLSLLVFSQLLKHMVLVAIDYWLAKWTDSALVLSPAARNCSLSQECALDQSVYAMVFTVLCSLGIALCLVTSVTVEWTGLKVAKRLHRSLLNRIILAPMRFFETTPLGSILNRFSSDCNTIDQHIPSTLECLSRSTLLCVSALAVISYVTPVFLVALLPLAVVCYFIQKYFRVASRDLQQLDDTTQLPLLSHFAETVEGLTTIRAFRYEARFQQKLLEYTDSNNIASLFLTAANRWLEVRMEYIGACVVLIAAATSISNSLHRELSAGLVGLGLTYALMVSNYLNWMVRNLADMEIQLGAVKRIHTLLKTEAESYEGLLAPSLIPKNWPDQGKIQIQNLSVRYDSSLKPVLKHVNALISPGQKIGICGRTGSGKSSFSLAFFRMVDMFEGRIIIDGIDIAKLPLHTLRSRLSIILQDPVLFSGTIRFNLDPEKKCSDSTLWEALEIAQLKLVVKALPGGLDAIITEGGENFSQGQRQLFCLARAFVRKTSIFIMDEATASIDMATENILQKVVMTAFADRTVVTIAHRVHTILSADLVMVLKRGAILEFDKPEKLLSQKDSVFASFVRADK
# T1 sequence (P70673 whole entry): as the sequence (P70673 whole entry) above
# T1 sequence (Q09429 whole entry): as the sequence (Q09429 whole entry) above
# T2 sequence (Q14654 whole entry): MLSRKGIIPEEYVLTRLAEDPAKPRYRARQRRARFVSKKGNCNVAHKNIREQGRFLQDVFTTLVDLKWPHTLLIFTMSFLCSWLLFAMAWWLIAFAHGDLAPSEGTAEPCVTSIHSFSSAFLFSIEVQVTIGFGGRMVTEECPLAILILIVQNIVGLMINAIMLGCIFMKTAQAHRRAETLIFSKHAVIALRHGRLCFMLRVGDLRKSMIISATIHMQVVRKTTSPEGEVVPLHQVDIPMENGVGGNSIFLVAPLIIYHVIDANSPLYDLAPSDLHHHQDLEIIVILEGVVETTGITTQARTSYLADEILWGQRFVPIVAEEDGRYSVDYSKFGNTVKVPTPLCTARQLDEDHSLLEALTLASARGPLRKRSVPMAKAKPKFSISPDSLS
# T2 sequence (Q09428 whole entry): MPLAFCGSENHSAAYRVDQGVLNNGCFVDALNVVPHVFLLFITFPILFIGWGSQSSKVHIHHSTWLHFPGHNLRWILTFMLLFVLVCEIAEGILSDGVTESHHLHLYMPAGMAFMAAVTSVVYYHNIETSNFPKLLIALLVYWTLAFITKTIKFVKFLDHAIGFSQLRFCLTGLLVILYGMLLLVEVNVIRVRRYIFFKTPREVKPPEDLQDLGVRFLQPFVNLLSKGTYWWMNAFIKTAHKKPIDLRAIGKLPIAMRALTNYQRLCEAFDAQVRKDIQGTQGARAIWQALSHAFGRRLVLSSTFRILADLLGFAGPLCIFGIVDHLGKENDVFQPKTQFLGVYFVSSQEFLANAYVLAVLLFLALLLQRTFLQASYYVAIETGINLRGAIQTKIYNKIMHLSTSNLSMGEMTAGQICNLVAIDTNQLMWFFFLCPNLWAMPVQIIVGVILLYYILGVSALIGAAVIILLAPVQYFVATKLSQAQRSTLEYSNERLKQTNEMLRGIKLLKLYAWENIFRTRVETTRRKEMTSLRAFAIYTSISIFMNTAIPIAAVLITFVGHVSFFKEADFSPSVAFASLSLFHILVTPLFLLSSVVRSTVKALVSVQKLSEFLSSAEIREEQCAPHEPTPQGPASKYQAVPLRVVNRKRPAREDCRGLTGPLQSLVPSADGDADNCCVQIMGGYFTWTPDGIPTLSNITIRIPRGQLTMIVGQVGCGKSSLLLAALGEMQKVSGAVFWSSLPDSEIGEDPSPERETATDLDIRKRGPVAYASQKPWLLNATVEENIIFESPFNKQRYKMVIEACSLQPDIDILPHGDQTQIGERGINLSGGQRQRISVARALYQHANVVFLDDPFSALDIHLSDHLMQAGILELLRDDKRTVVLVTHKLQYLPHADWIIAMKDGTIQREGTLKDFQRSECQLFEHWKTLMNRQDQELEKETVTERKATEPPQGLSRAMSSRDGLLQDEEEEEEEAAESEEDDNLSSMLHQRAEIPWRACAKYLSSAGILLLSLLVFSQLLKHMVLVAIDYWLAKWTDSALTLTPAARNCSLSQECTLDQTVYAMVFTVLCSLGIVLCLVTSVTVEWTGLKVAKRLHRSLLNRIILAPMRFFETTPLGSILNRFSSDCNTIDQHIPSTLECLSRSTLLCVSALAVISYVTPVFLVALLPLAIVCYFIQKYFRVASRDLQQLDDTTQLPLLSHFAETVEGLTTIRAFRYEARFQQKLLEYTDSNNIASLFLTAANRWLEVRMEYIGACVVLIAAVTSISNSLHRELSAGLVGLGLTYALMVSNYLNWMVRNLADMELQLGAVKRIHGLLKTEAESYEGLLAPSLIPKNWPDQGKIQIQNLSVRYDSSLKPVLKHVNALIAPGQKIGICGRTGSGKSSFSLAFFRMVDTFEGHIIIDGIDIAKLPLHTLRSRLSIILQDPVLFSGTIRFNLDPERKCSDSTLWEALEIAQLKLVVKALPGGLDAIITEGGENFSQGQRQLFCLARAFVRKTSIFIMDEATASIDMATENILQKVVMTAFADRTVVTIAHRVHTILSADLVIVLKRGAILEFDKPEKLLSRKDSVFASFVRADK
smiles,measurement,setting,value
"COc1ccc2c(c1OC)CN1CCc3cc4c(cc3C1C2)OCO4 (stereo not drawn) [THB, tetrahydroberberine]",effect on single channel activities opened by ATP free solution,[1],inhibited these single channel activities
same,insulin secretion after bath application,rat pancreatic islets,39.4±1.5 pg/islet/min
same,normalized NPo value,"Kir6.2SUR1 KATP channels; 100 μM, control as 1, THB 6 patches, Ipt 8 patches",0.51±0.05
same,change in channel activity NP0 compared to control,"Kir6.2SUR1 KATP channels; 100 μm THB, three experiments, FIG. 8B",50%
same,effect on β-cell KATP channel-mediated whole-cell currents,[2],reduced these β-cell KATP channel-mediated currents
same,membrane potential after co-application of dopamine with substance,"[3]; 100 μM THB (from −45.6±1.0, n=7), tolbutamide (from −45.3±2.3, n=4)",−38.6±1.2 mV
same,altered membrane potential on co-application with dopamine,[3]; difference THB vs tolbutamide p>0.05,7.0±0.9 mV
same,membrane potential after substance during persistent perfusion of rotenone,"[4]; 1 μM rotenone, before: THB −61.7±1.3 (n=11), tolbutamide −61.6±1.2 (n=21), p<0.01",−46.7±0.9 mV
same,altered membrane potential in the presence of rotenone,[4]; 1 μM substance,0.8±0.3 mV
same,altered membrane potential in the presence of rotenone,[4]; 10 μM substance,5.7±0.7 mV
same,altered membrane potential in the presence of rotenone,[4]; 100 μM substance,15.1±1.2 mV
same,"altered membrane potential (depolarization) on rotenone-opened KATP channels, analog comparison","[4]; 100 μM, 6 neurons, FIG. 4B",15.5±1.6 mV
same,Hill coefficient of concentration-effect relationship curve,[4]; membrane depolarization in the presence of rotenone,2.1
same,IC50,"[4]; membrane depolarization in the presence of rotenone, read-out: IC50 of concentration-effect relationship curve (block of KATP channels)",13.1 µM
same,effect on rotenone-induced membrane hyperpolarization in the presence of D2 receptor antagonist,"[4]; rotenone 1 mM and sulpiride 10 mM as printed, 6 neurons, FIG. 7A",significantly restored membrane hyperpolarization and action potential firing
